How the values were obtained:
[1] = molecular target: T1, P-gp (Homo sapiens, UniProt P08183); test: EC50 for reversing drug resistance in K562/P-gp cells (cell proliferation assay); details: EC50 for Reversing MDR
Text: (§1) EC50 was defined as the concentration at which the modulator can reduce the IC50 of an anticancer drug by half in the P-gp-overexpressing cell lines. […] The P-gp-modulating activity of methylated catechin derivatives was further studied by measuring the EC50. […] Three P-gp-overexpressing cell lines were employed, including breast cancer cell line LCC6MDR, mouse leukemia cell line P388ADR, and human leukemia cell line K562/P-gp. The anticancer drugs tested included DOX, PTX, and VCR. All values were presented as mean ± standard error of mean. N = 3–6 independent experiments.
(§2) About 6500 cells of LCC6MDR or 10,000 cells of P388ADR or K562/P-gp were seeded to each well of 96-well plate and were then incubated at 37 °C overnight. […] Cell viability was determined using CellTiter 96 AQueous Assay (Promega, Madison, WI, USA, #G1111) as reported previously [38]. The % of cell survival, IC50 of anticancer drugs towards the cell line, and EC50 of modulators were analyzed using nonlinear regression in Prism 5.0.

[2] = molecular target: T1, P-gp; test: EC50 for reversing drug resistance in LCC6MDR cells (cell proliferation assay); details: for EC50: EC50 for Reversing MDR, LCC6MDR
Text: as §1, §2

[3] = system: LCC6MDR xenograft; test: In vivo efficacy in reversing PTX resistance in LCC6MDR tumor xenograft model; details: for Doubling time: q2d x 14; for reduction in tumor volume compared to PTX alone / reduction in tumor weight compared to PTX alone: day 30
Protocol: (A) In vivo toxicity study of EC31 alone and of its combination with PTX was conducted. BALB/c mice were randomized into five groups with five mice in each group. Body weight of BALB/c mice during treatments was measured every two days. The treatment groups included (1) solvent control (5% NMP + 5% Cremophor EL + 90% PBS to dissolve EC31 and 5% Ethanol + 5% Cremophor EL + 90% PBS to dissolve PTX), (2) PTX (12 mg/kg i.v.), (3) EC31 (30 mg/kg i.p.), (4) EC31 (30 mg/kg i.p.) + PTX (12 mg/kg i.v.), or (5) EC31 (60 mg/kg i.p.) + PTX (12 mg/kg i.v.). The administration was performed every other day 12 times (q2d x 12). The loss of body weight or appetite and treatment-related mortality were monitored and defined as toxicity. (B) BALB/c nude mice were subcutaneously xenografted with LCC6MDR. When the tumor reached 150–300 mm^3, the mice were randomized and administered once with (1) EC31 alone, (2) PTX alone, or (3) EC31 + PTX. […] The tumors were taken out, and their weights were measured. Intratumor concentration of EC31 or PTX was measured using UPLC-MS/MS, and the actual concentration of PTX or EC31 was normalized to the tumor weight. […] (C) BALB/c nude mice were subcutaneously xenografted with LCC6MDR. The treatment groups included (1) solvent, (2) PTX (12 mg/kg i.v.) alone, (3) cotreatment with EC31 (30 mg/kg i.p.) being injected 1 h prior to PTX (12 mg/kg i.v.) and with EC31 (30 mg/kg i.p.) then being given in a second injection 5 h post-PTX injection, and (4) cotreatment with EC31 (60 mg/kg i.p.) being injected 1 h prior to PTX injection (12 mg/kg i.v.). Tumor volume and body weight were monitored throughout the treatment period. There were 8 mice in each treatment group. Treatments were given as indicated by the arrows. […] At the end of LCC6MDR xenograft efficacy study (day 30), all tumors were dissected. The tumor volume, tumor weight, and doubling time were measured. The number of animal deaths was recorded during the treatment period. Statistical analysis on tumor volumes of different treatment groups was done by performing two-way ANOVA with Dunnett’s multiple comparison test after treatment period. * represents p < 0.05, ** represents p < 0.01, and *** represents p < 0.001. […] No measure is printed with it.
Here, we tested whether EC31 could reverse P-gp-mediated PTX resistance in the LCC6MDR xenograft model (Figure 5C). The treatment was given every other day 14 times (q2d x 14) from day 0 to day 26.
The LCC6MDR tumor xenograft model was studied as it was previously. About 1 × 10^6 cells of LCC6MDR cells were inoculated subcutaneously (s.c.) into the rear flank of a female BALB/c nude mouse (4–6 weeks old). When a tumor of 200–250 mm^3 was formed, it was removed and cut into cubes of 1 mm^3 and was xenografted s.c. into the rear flank of another female BALB/c nude mouse. Treatments started when the tumor reached 100 mm^3. […] Tumor growth was measured with an electronic caliper on the injection day, and the tumor volume was calculated as reported previously.

[4] = molecular target: T1, P-gp; test: Vanadate-sensitive P-gp ATPase activity assay (P-gp-Glo); details: 70 µM
Protocol: (A) Effect of EC31 on vanadate-sensitive P-gp ATPase was studied. EC31, C25, and EGCG at different concentrations (10, 50, and 70 µM) were incubated with recombinant human P-gp microsomes and MgATP with or without sodium vanadate. After stopping the reaction, the remaining ATP level was determined by measuring the luciferase-generated luminescent signal. Vanadate-inhibitable P-gp ATPase activity was determined by calculating the luminescence signal in the samples with or without sodium vanadate. […] P-gp ATPase activity caused by compounds was normalized to basal P-gp ATPase activity (human P-gp microsome treated with DMSO) and was presented as fold change. A dashed line at 1.0-fold change represented the basal P-gp ATPase activity. […] The values in this figure were presented as mean ± standard error of mean. N = 3 independent experiments.
P-gp ATPase activity was measured with P-gp-Glo assay system (Promega, #V3601) with human P-gp membrane vesicles as reported previously [32]. […] The reaction was initiated by adding MgATP and was then incubated at 37 °C for 1 h. […] The remaining ATP signal of luminescence was measured with a Clariostar microplate reader (BMG Labtech, Ortenberg, Germany). Vanadate-inhibitable P-gp ATPase activity was determined by calculating the luminescence signal in the samples with or without sodium vanadate.

[5] = system: P388ADR leukemia; test: In vivo efficacy in reversing DOX resistance in murine leukemia P388ADR model; parameters: species or system B6D2F1 mice
Protocol: Irradiated BDF1 mice were i.p. inoculated with P388ADR cells, which caused mouse leukemia. Irradiated NOD/SCID mice were i.v. inoculated with K562/P-gp cells, which caused human leukemia. The mice were randomized and treated with (1) control treatment (no treatment), (2) DOX alone, and (3) EC31 + DOX. Treatments were given as indicated by the arrows. The number of mice deaths in each treatment group was recorded every day. (A) The percent survival of mice infected with P388ADR. (B) The percent survival of mice infected with K562/P-gp. The mice median survival days and the increased lifespan (ILS) were analyzed with Log-rank (Mantel–COX) test in Prism 5.0. Student’s paired t test was conducted as indicated. ** represents p < 0.01, and *** represents p < 0.001. N.S. = not significant.
About 1 × 10^6 cells of P388ADR were i.p. inoculated in male B6D2F1 mice aged 5–7 weeks old. There were 3 groups: (1) control group with no treatment, (2) DOX (3 mg/kg i.p.) alone, and (3) cotreatment with EC31 (60 mg/kg i.p.) being injected 1 h prior to DOX (3 mg/kg i.p.) administration. In group 2, DOX was i.p. injected on days 2, 6, 10, 14, and 18 only. In group 3, EC31 was i.p. injected on days 1, 2, 5, 6, 9, 10, 13, 14, 17, and 18, and DOX was i.p. injected on days 2, 6, 10, 14, and 18. Before each treatment, 1.5 mg/mL of DOX was freshly prepared using PBS. Mice survival and body weight were monitored during the study period.

[6] = In vivo toxicity study of EC31 alone and combined with PTX; details: q2d x 12
Protocol: (A) In vivo toxicity study of EC31 alone and of its combination with PTX was conducted. BALB/c mice were randomized into five groups with five mice in each group. Body weight of BALB/c mice during treatments was measured every two days. The treatment groups included (1) solvent control (5% NMP + 5% Cremophor EL + 90% PBS to dissolve EC31 and 5% Ethanol + 5% Cremophor EL + 90% PBS to dissolve PTX), (2) PTX (12 mg/kg i.v.), (3) EC31 (30 mg/kg i.p.), (4) EC31 (30 mg/kg i.p.) + PTX (12 mg/kg i.v.), or (5) EC31 (60 mg/kg i.p.) + PTX (12 mg/kg i.v.). The administration was performed every other day 12 times (q2d x 12). The loss of body weight or appetite and treatment-related mortality were monitored and defined as toxicity. (B) BALB/c nude mice were subcutaneously xenografted with LCC6MDR. When the tumor reached 150–300 mm^3, the mice were randomized and administered once with (1) EC31 alone, (2) PTX alone, or (3) EC31 + PTX. […] The tumors were taken out, and their weights were measured. Intratumor concentration of EC31 or PTX was measured using UPLC-MS/MS, and the actual concentration of PTX or EC31 was normalized to the tumor weight. […] Tumor volume and body weight were monitored throughout the treatment period. […] The tumor volume, tumor weight, and doubling time were measured. The number of animal deaths was recorded during the treatment period. […]

[7] = molecular target: T1, P-gp; test: Intracellular EC31 or PTX accumulation in LCC6 versus LCC6MDR cells; type: cell-based; parameters: expressed in transfected cells; host or cells: MDA435/LCC6MDR (human breast cancer line, gift of Dr. Robert Clarke); details: from accumulation and efflux in cells with or without P-gp
Text: N = 3 independent experiments.

[8] = group 3: EC31 30 mg/kg + PTX + EC31 30 mg/kg

T1 sequence (P08183 whole entry): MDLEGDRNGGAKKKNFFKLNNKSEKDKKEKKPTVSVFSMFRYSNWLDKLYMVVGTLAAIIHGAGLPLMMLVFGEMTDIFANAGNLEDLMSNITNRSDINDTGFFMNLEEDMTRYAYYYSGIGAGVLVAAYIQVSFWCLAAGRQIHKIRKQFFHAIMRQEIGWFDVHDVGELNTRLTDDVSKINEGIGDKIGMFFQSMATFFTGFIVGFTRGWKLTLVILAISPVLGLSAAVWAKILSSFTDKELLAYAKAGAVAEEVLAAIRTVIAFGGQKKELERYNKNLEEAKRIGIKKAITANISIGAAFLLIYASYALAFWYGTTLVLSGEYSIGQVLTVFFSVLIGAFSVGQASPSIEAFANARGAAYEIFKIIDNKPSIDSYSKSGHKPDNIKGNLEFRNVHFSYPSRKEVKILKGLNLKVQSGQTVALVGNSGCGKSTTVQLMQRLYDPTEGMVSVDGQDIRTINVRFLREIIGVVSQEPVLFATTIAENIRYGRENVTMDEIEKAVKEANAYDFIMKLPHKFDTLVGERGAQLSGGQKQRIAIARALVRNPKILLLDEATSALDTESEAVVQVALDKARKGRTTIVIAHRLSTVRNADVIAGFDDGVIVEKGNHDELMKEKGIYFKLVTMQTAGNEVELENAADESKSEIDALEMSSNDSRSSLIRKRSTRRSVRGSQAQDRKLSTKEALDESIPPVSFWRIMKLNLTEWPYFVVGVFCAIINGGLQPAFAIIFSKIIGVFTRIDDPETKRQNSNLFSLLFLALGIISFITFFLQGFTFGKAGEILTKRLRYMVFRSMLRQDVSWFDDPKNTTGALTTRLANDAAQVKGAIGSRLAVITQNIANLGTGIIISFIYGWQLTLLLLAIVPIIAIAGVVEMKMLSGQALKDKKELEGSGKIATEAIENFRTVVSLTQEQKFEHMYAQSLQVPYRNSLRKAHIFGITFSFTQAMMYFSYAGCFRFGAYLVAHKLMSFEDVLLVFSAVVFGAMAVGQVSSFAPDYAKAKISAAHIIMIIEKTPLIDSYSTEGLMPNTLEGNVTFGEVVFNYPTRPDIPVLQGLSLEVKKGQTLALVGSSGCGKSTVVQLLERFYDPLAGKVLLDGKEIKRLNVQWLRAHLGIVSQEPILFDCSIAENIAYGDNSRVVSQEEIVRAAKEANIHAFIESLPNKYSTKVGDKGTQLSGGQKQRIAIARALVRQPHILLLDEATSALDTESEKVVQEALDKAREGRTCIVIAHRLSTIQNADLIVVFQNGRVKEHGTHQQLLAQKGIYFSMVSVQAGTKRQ

COc1cc(OC)c2c(c1)O[C@H](c1ccc(OC)c(OC)c1)[C@H](OC(=O)c1ccc(F)c(NC(=O)c3cc(OC)c(OC)c(OC)c3)c1)C2 [EC31]
EC50 ([1]; DOX Resistance, K562/P-gp, concentration that reduces IC50 of DOX by half): 93 ± 33 nM
EC50 ([1]; VCR Resistance, K562, concentration that reduces IC50 of VCR by half, column head prints K562): 37 ± 10 nM
EC50 ([2]; DOX Resistance, concentration that reduces IC50 of DOX by half): 159 ± 21 nM
EC50 ([2]; PTX Resistance, concentration that reduces IC50 of PTX by half): 94 ± 21 nM
fold lower EC50 than that of verapamil ([2]; reversing PTX resistance in LCC6MDR): about 4.7 fold
Doubling time ([3]; EC31 30 mg/kg i.p. (−1 h) + PTX 12 mg/kg i.v. + EC31 30 mg/kg i.p. (+5 h)): 15.0 days
Doubling time ([3]; EC31 60 mg/kg i.p. (−1 h) + PTX 12 mg/kg i.v.): 12.4 days
reduction in tumor volume compared to PTX alone [3, 8]: 1.6 fold
reduction in tumor weight compared to PTX alone [3, 8]: 1.5 fold
reduction in tumor volume compared to PTX alone ([3]; group 4: EC31 60 mg/kg + PTX): 1.4 fold
reduction in tumor weight compared to PTX alone ([3]; group 4: EC31 60 mg/kg + PTX): 1.4 fold
P-gp ATPase activity, fold change relative to basal [4]: ≤ 2.1 fold
median survival ([5]; EC31 60 mg/kg i.p. + DOX 3 mg/kg i.p.): 21.5 days
ILS% (increase in lifespan) ([5]; EC31 60 mg/kg i.p. + DOX 3 mg/kg i.p. compared to DOX alone): 30.3%
mortality or toxicity symptoms ([6]; EC31 30 mg/kg i.p. alone): did not cause any mortality or toxicity symptoms
body weight loss ([6]; EC31 30 or 60 mg/kg i.p. + PTX 12 mg/kg i.v.): ≤ 15%
P-gp transport substrate status [7]: not a transport substrate of P-gp
